# Counter-ions that a name gives are not always drawn.
# Target: Proton Pump (H^+/K^+-ATPase) (Sus scrofa, UniProt P19156)
# Test: Inhibitory effects on proton pump (H^+/K^+-ATPase) activity
# Format: biochemical
# Conditions: hog gastric vesicles; K^+ stimulated H^+/K^+-ATPase activity; 30 minutes at 37° C.
# Proton Pump (H^+/K^+-ATPase), sequence (P19156 2-1034 limits assumed): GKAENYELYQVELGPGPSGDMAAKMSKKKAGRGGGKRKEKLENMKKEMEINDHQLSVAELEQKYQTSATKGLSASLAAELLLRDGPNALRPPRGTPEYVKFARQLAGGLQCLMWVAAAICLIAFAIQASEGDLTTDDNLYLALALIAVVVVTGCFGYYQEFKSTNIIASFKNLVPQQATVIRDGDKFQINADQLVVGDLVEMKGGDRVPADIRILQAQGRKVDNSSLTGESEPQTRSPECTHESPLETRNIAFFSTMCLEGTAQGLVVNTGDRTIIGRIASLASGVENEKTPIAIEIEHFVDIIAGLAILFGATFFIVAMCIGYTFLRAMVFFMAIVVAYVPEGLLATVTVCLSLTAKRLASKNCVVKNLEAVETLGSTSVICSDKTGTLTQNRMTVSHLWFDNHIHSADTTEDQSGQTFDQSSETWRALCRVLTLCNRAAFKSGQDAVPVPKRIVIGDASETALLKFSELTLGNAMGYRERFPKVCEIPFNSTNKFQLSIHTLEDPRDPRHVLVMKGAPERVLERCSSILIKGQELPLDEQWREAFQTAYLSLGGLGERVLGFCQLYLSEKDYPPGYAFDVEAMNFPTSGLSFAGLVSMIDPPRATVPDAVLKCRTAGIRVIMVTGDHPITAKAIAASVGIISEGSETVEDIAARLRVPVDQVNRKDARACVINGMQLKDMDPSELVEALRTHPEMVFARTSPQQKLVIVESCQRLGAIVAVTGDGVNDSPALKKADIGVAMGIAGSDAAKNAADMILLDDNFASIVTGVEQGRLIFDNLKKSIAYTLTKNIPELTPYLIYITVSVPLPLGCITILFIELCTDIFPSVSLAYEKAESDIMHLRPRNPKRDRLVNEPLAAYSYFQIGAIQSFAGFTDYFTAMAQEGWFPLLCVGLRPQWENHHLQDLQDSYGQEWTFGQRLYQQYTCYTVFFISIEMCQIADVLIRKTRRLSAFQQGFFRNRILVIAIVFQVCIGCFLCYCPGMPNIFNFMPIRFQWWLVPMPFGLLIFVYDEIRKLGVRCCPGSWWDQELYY
# Proton Pump (H^+/K^+-ATPase), sequence (P18434 whole entry partner): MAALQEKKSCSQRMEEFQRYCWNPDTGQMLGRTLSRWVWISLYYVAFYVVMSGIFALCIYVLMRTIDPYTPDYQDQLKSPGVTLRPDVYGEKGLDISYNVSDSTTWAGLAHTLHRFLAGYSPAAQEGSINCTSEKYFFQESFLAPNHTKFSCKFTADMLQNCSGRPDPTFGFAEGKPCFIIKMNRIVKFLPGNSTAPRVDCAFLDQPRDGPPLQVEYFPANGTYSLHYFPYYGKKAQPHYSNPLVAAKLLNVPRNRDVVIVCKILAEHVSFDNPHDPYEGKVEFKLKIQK
row,IC50 [nM],SMILES
1,240,"C=CCn1c(C)c(C)c2ccnc(N(C)Cc3ccc(F)cc3)c21 [Example 140, 1-allyl-7-[N-(4-fluorobenzyl)-N-methyl]amino-2,3-dimethyl-1H-pyrrolo[2,3-c]pyridine hydrochloride]"
2,20,"Cc1c(C)n(Cc2ccccn2)c2c(N3CCc4ccccc4C3)nccc12 [Example 517, 1-(pyridin-2-ylmethyl)-7-(1,2,3,4-tetrahydroisoquinolin-2-yl)-2,3-dimethyl-1H-pyrrolo[2,3-c]pyridine hydrochloride]"
3,420,"CSc1ccc(-c2nccc3c(C)c(C)n(Cc4ccc(F)cc4)c23)cc1 [Example 274, 2,3-dimethyl-1-(4-fluorobenzyl)-7-(4-methylsulfanylphenyl)-1H-pyrrolo[2,3-c]pyridine hydrochloride]"
4,65,"COCCn1c(C)c(C)c2ccnc(N3CCc4ccccc4C3)c21 [Example 499, 1-(2-methoxyethyl)-7-(1,2,3,4-tetrahydroisoquinolin-2-yl)-2,3-dimethyl-1H-pyrrolo[2,3-c]pyridine hydrochloride]"
5,170,"Cc1ccc(Cn2c(C)c(C)c3ccnc(N(C)Cc4ccc(F)cc4)c32)cc1 [Example 152, 7-[N-(4-fluorobenzyl)-N-methyl]amino-2,3-dimethyl-1-(4-methylbenzyl)-1H-pyrrolo[2,3-c]pyridine hydrochloride]"
6,0.7,"C=CCn1c(C)c(C)c2cc(C(=O)N3CCN(C)CC3)nc(N3CCc4ccccc4C3)c21 [Example 785, [1-allyl-7-(3,4-dihydro-1H-isoquinolin-2-yl)-2,3-dimethyl-1H-pyrrolo[2,3-c]pyridin-5-yl]-(4-methylpiperazin-1-yl)-methanone hydrochloride]"
7,62,"Cc1c(C)n(Cc2cccc(F)c2)c2c(N3CCc4ccccc4C3)nc(N)cc12 [Example 847, 7-(3,4-dihydro-1H-isoquinolin-2-yl)-1-(3-fluorobenzyl)-2,3-dimethyl-1H-pyrrolo[2,3-c]pyridin-5-amine hydrochloride]"
8,1.1,"CCn1c(C)c(C)c2cc(C(=O)N3CCCCC3)nc(N3CCc4ccccc4C3)c21 [Example 787, [7-(3,4-dihydro-1H-isoquinolin-2-yl)-1-ethyl-2,3-dimethyl-1H-pyrrolo[2,3-c]pyridin-5-yl]-(piperidin-1-yl)-methanone hydrochloride]"
9,59,"CCn1c(C)c(C)c2cc(C(=O)N3CC=CCC3)nc(N3CCc4ccccc4C3)c21 [Example 809, [7-(3,4-dihydro-1H-isoquinolin-2-yl)-1-ethyl-2,3-dimethyl-1H-pyrrolo[2,3-c]pyridin-5-yl]-(3,6-dihydro-2H-pyridin-1-yl)-methanone hydrochloride]"
10,43,"Cc1c(C)n(Cc2cccc(F)c2)c2c(N3CCc4ccccc4C3)nc(CNC3CCC3)cc12 [Example 870, N-[7-(3,4-dihydro-1H-isoquinolin-2-yl)-1-(3-fluorobenzyl)-2,3-dimethyl-1H-pyrrolo[2,3-c]pyridin-5-ylmethyl]-cyclobutylamine hydrochloride]"
11,340,"COc1cccc(Cn2c(C)c(C)c3ccnc(N(C)Cc4ccc(F)cc4)c32)c1 [Example 151, 7-[N-(4-fluorobenzyl)-N-methyl]amino-1-(3-methoxybenzyl)-2,3-dimethyl-1H-pyrrolo[2,3-c]pyridine hydrochloride]"
12,220,"CCC1c2ccccc2CCN1c1nccc2c(C)c(C)n(CC)c12 (centres unmarked) [Example 576, 1-ethyl-2-(1-ethyl-2,3-dimethyl-1H-pyrrolo[2,3-c]pyridin-7-yl)-1,2,3,4-tetrahydroisoquinoline hydrochloride]"
13,490,"COCCn1c(C)c(C)c2ccnc(-c3ccc(SC)cc3)c21 [Example 264, 1-(2-methoxyethyl)-2,3-dimethyl-7-(4-methylsulfanylphenyl)-1H-pyrrolo[2,3-c]pyridine hydrochloride]"
14,80,"C#CCn1c(C)c(C)c2cc(C(=O)N3CCCCC3)nc(N3CCc4ccccc4C3)c21 [Example 802, [7-(3,4-dihydro-1H-isoquinolin-2-yl)-2,3-dimethyl-1-(prop-2-ynyl)-1H-pyrrolo[2,3-c]pyridin-5-yl]-(piperidin-1-yl)-methanone hydrochloride]"
15,125,"C=CCn1c(C)c(C)c2cc(C(=O)NC3CC3)nc(N3CCc4ccccc4C3)c21 [Example 761, 1-allyl-7-(3,4-dihydro-1H-isoquinolin-2-yl)-2,3-dimethyl-N-cyclopropyl-1H-pyrrolo[2,3-c]pyridin-5-carboxamide]"
16,412,"Cc1ccc(CNCc2cc3c(C)c(C)n(Cc4cccc(F)c4)c3c(N3CCc4ccccc4C3)n2)cc1 [Example 867, N-[7-(3,4-dihydro-1H-isoquinolin-2-yl)-1-(3-fluorobenzyl)-2,3-dimethyl-1H-pyrrolo[2,3-c]pyridin-5-ylmethyl]-4-methylbenzylamine hydrochloride]"
17,23,"CCn1c(C)c(C)c2cc(C(=O)N3CCCC(O)C3)nc(N3CCc4ccccc4C3)c21 (centres unmarked) [Example 807, [7-(3,4-dihydro-1H-isoquinolin-2-yl)-1-ethyl-2,3-dimethyl-1H-pyrrolo[2,3-c]pyridin-5-yl]-(3-hydroxypiperidin-1-yl)-methanone hydrochloride]"

row,IC50 [nM],SMILES
1,12,"Cc1c(C)n(Cc2ccccc2)c2c(N3CCc4ccccc4C3)nc(C(=O)N3CCN(C)CC3)cc12 [Example 819, [1-benzyl-7-(3,4-dihydro-1H-isoquinolin-2-yl)-2,3-dimethyl-1H-pyrrolo[2,3-c]pyridin-5-yl]-(4-methylpiperazin-1-yl)-methanone hydrochloride]"
2,48,"COc1cccc(Cn2c(C)c(C)c3ccnc(CN(C)c4ccc(F)cc4)c32)c1 [Example 116, N-(4-fluorophenyl)-N-[1-(3-methoxybenzyl)-2,3-dimethyl-1H-pyrrolo[2,3-c]pyridin-7-ylmethyl]-methylamine hydrochloride]"
3,1460,"COCCn1c(C)c(C)c2ccnc(COc3ccc(F)cc3F)c21 [Example 34, 7-(2,4-difluorophenoxymethyl)-1-(2-methoxyethyl)-2,3-dimethyl-1H-pyrrolo[2,3-c]pyridine hydrochloride]"
4,384,"Cc1c(C)n(Cc2ccccc2)c2c(-c3ccc(Cl)cc3)nccc12 [Example 301, 1-benzyl-7-(4-chlorophenyl)-2,3-dimethyl-1H-pyrrolo[2,3-c]pyridine hydrochloride]"
5,440,"CCn1c(C)c(C)c2ccnc(NCc3ccc(F)cc3)c21 [Example 223, 1-ethyl-7-(4-fluorobenzylamino)-2,3-dimethyl-1H-pyrrolo[2,3-c]pyridine hydrochloride]"
6,27,"Cc1c(C)n(Cc2cccc(F)c2)c2c(CN(C)c3ccc(F)cc3)nccc12 [Example 114, N-[1-(3-fluorobenzyl)-2,3-dimethyl-1H-pyrrolo[2,3-c]pyridin-7-ylmethyl]-N-(4-fluorophenyl)-methylamine hydrochloride]"
7,332,"Cc1c(C)n(Cc2ccc(F)cc2)c2c(CN(C)c3ccc(F)cc3)nccc12 [Example 118, N-[1-(4-fluorobenzyl)-2,3-dimethyl-1H-pyrrolo[2,3-c]pyridin-7-ylmethyl]-N-(4-fluorophenyl)-methylamine hydrochloride]"
8,379,"CCc1c(C)c2ccnc(N3CCc4ccccc4C3)c2n1C [Example 609, 2-ethyl-1,3-dimethyl-7-(1,2,3,4-tetrahydroisoquinolin-2-yl)-1H-pyrrolo[2,3-c]pyridine hydrochloride]"
9,180,"COc1cccc(Cn2c(C)c(C)c3ccnc(COc4ccc(C)cc4)c32)c1 [Example 16, 1-(3-methoxybenzyl)-2,3-dimethyl-7-(p-tolyloxymethyl)-1H-pyrrolo[2,3-c]pyridine hydrochloride]"
10,490,"COc1ccc(-c2nccc3c(C)c(C)n(Cc4ccccc4F)c23)cc1 [Example 353, 1-(2-fluorobenzyl)-7-(4-methoxyphenyl)-2,3-dimethyl-1H-pyrrolo[2,3-c]pyridine hydrochloride]"
11,212,"COc1cccc(Cn2c(C)c(C)c3ccnc(COc4ccc(C)cc4C)c32)c1 [Example 68, 1-(3-methoxybenzyl)-2,3-dimethyl-7-(2,4-dimethylphenoxymethyl)-1H-pyrrolo[2,3-c]pyridine hydrochloride]"
12,110,"CSc1ccc(-c2nccc3c(C)c(C)n(Cc4ccc(C)cc4)c23)cc1 [Example 267, 2,3-dimethyl-1-(4-methylbenzyl)-7-(4-methylsulfanylphenyl)-1H-pyrrolo[2,3-c]pyridine hydrochloride]"
13,1030,"Cc1c(C)n(Cc2cccc(F)c2)c2c(N3CCc4ccccc4C3)nc(CNc3ccc(F)cc3)cc12 [Example 866, N-[7-(3,4-dihydro-1H-isoquinolin-2-yl)-1-(3-fluorobenzyl)-2,3-dimethyl-1H-pyrrolo[2,3-c]pyridin-5-ylmethyl]-4-fluorophenylamine hydrochloride]"
14,1560,"C=CCCn1c(C)c(C)c2cc(C#N)nc(N3CCc4ccccc4C3)c21 [Example 683, 1-(but-3-enyl)-7-(3,4-dihydro-1H-isoquinolin-2-yl)-2,3-dimethyl-1H-pyrrolo[2,3-c]pyridin-5-carbonitrile]"
15,100,"C=Cc1ccc(-c2nccc3c(C)c(C)[nH]c23)cc1 [Example 242, 2,3-dimethyl-7-(4-vinylphenyl)-1H-pyrrolo[2,3-c]pyridine]"
16,400,"CC(C)=CCn1c(C)c(C)c2ccnc(N3CCc4ccc(Cl)cc4C3C)c21 (centres unmarked) [Example 534, 7-chloro-2-[2,3-dimethyl-1-(3-methylbut-2-enyl)-1H-pyrrolo[2,3-c]pyridin-7-yl]-1-methyl-1,2,3,4-tetrahydroisoquinoline hydrochloride]"
17,35,"CCn1c(C)c(C)c2cc(C(=O)N3CCCC3)nc(N3CCc4ccccc4C3)c21 [Example 803, [7-(3,4-dihydro-1H-isoquinolin-2-yl)-1-ethyl-2,3-dimethyl-1H-pyrrolo[2,3-c]pyridin-5-yl]-(pyrrolidin-1-yl)-methanone hydrochloride]"

row,SMILES,IC50 [nM]
1,"Cc1c(C)n(Cc2ccccc2)c2c(N3CCc4ccccc4C3)nc(C(=O)N3CCSCC3)cc12 [Example 789, [1-benzyl-7-(3,4-dihydro-1H-isoquinolin-2-yl)-2,3-dimethyl-1H-pyrrolo[2,3-c]pyridin-5-yl]-(thiomorpholin-1-yl)-methanone hydrochloride]",65

# Reference: patent publication US7662832B2, “Pyrrolo[2,3-c]pyridine derivatives and processes for the preparation thereof” (priority 2004, dated 2010)
